Each block holds one compound with its values, some of them ahead of it. Activity calls are given as the source filed them. The rule behind the calls is not given here.
Key:
[1] = test system: J774; experiment: Cytotoxicity against mouse J774 cells expressing RANKL signaling by Alamar blue assay; format: functional, cell-based
[2] = Cytotoxicity against mouse osteoblast cells by alamar blue assay; format: cell-based
[3] = test system: Mus musculus; experiment: Anti-resorptive activity against ovariectomy-induced bone loss in mouse assessed as increase in trabecular bone mineral density at 20 mg/kg/day, po relative to untreated control; format: functional, Trabecula
[4] = Cytotoxicity against mouse osteoclast cells expressing RANKL signaling by Alamar blue assay; format: functional, cell-based
[5] = biological target: T1, Tumor necrosis factor ligand superfamily member 11 (Mus musculus) (UniProt O35235); experiment: Inhibition of NFkappa signaling in mouse macrophages assessed as reduction in RANKL-induced IkapppaB phosphorylation at 10 uM pretreated for 1 hr before RANKL challenge by Western blotting
T1 sequence (whole entry): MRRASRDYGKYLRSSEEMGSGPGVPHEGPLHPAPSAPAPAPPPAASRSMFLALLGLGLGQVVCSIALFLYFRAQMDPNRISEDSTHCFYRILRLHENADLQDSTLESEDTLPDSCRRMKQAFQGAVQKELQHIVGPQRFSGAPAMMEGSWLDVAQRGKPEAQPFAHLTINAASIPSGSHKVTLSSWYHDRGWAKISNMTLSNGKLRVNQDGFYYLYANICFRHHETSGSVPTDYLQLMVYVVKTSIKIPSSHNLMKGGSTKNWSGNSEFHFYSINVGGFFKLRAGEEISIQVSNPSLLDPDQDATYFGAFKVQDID

[6] = test system: Mus musculus; experiment: Antiarthritic activity in mouse assessed as inhibition of collagen-induced arthritis at 10 mg/kg/day, po administered 15 days post collagen challenge; format: functional, organism-based
[7] = Inhibition of NFkappa signaling in mouse macrophages assessed as reduction in TNF-alpha-induced IkapppaB phosphorylation at 10 uM pretreated for 1 hr before TNFalpha challenge by Western blotting
[8] = biological target: T1, Tumor necrosis factor ligand superfamily member 11 (Mus musculus); experiment: Inhibition of NFkappa signaling in mouse macrophages assessed as reduction in RANKL-induced IkapppaB phosphorylation at 50 uM pretreated for 1 hr before RANKL challenge by Western blotting
[9] = Inhibition of NFkappa signaling in mouse macrophages assessed as reduction in TNF-alpha-induced IkapppaB phosphorylation at 50 uM pretreated for 1 hr before TNFalpha challenge by Western blotting
[10] = test system: Mus musculus; experiment: Effect on ovariectomy-induced bone loss in mouse assessed as reduction in trabecular bone mineral density at 20 mg/kg/day, po (reference value: bone mineral density loss = 34%); format: functional, Trabecula; design: scale not given: the % may be the effect or the level left
[11] = test system: Mus musculus; experiment: Antiarthritic activity in mouse assessed as inhibition of collagen-induced arthritis at 10 mg/kg/day, ip administered 15 days post collagen challenge; format: functional, organism-based

SMILES: O=C(CCCCCO)c1ccc(-c2ccc(F)cc2F)cc1Cl
- IC50 [1]: 7 µM
- IC50 [2]: > 100 µM
- Activity [3]: -3%
- IC50 [4]: 3 µM

SMILES: COc1ccc(-c2ccc(C(=O)CCCCCO)cc2)cc1OC
- IC50 [1]: 60 µM
- IC50 [4]: 14 µM

- inhibition [7]: Active
SMILES: Cc1cc(C(=O)CCCCCO)ccc1-c1ccc(F)cc1F
- IC50 [1]: 8 µM
- IC50 [4]: 1.5 µM
- inhibition [5]: Active
- inhibition [6]: Active

SMILES: Cc1ccccc1-c1ccc(C(O)CCCCCO)cc1 (stereo not given)
- IC50 [1]: 24 µM

SMILES: OCCCCCC(O)c1ccc(-c2ccc(F)cc2F)cc1 (stereo not given)
- IC50 [1]: 8 µM

SMILES: OCCCCCC(O)c1ccc(-c2ccc(Br)cc2)cc1 (stereo not given)
- IC50 [1]: 20 µM

SMILES: O=C(CCCCCO)c1ccc(-c2ccc(F)c(F)c2)cc1
- IC50 [1]: 20 µM

SMILES: OCCCCCC(O)c1ccc(-c2ccc(Cl)cc2)cc1 (stereo not given)
- IC50 [1]: 17 µM

SMILES: OCCCCCC(O)c1ccc(-c2cccc(Cl)c2)cc1 (stereo not given)
- IC50 [1]: > 100 µM

SMILES: Cc1cc(F)ccc1-c1ccc(C(O)CCCCCO)cc1 (stereo not given)
- IC50 [1]: 20 µM

SMILES: OCCCCCC(O)c1ccc(-c2ccc(OC(F)(F)F)cc2)cc1 (stereo not given)
- IC50 [1]: 14 µM

SMILES: OCCCCCC(O)c1ccc(-c2ccc(O)cc2)cc1 (stereo not given)
- IC50 [1]: 15 µM

SMILES: CSc1ccc(-c2ccc(C(O)CCCCCO)cc2)cc1 (stereo not given)
- IC50 [1]: 24 µM

SMILES: OCCCCCC(O)c1ccc(-c2ccccc2F)cc1 (stereo not given)
- IC50 [1]: 22 µM

SMILES: CN(C)c1ccc(-c2ccc(C(O)CCCCCO)cc2)cc1 (stereo not given)
- IC50 [1]: 28 µM

SMILES: OCCCCCC(O)c1ccc(-c2ccc(F)cc2)cc1Cl (stereo not given)
- IC50 [1]: 8 µM

SMILES: OCCCCCC(O)c1ccc(-c2ccc(F)cc2)cc1F (stereo not given)
- IC50 [1]: 14 µM

SMILES: Cc1cc(C(O)CCCCCO)ccc1-c1ccc(F)cc1F (stereo not given)
- IC50 [1]: 8 µM
- IC50 [2]: > 100 µM
- IC50 [4]: 1.3 µM

SMILES: Cc1cc(-c2ccc(F)cc2F)ccc1C(=O)CCCCCO
- IC50 [1]: 4 µM

SMILES: OCCCCCC(O)c1ccc(-c2ccccc2O)cc1 (stereo not given)
- IC50 [1]: 40 µM

SMILES: OCCCCCC(O)c1ccc(-c2ccc(Cl)cc2Cl)cc1 (stereo not given)
- IC50 [1]: 8 µM

SMILES: Cc1cc(S(=O)(=O)NCCCCO)ccc1-c1ccc(F)cc1F
- inhibition [6]: Active

SMILES: O=C(CCCCCO)c1ccc(-c2ccc(F)cc2Cl)cc1
- IC50 [1]: 15 µM

SMILES: OCCCCCC(O)c1ccc(-c2ccccc2)c(F)c1 (stereo not given)
- IC50 [1]: 17 µM

SMILES: Cc1cccc(-c2ccc(C(O)CCCCCO)cc2)c1 (stereo not given)
- IC50 [1]: > 100 µM

SMILES: Cc1ccc(-c2ccc(C(O)CCCCCO)cc2)cc1 (stereo not given)
- IC50 [1]: 22 µM

SMILES: OCCCCCC(O)c1ccc(-c2ccc(F)cc2)cc1 (stereo not given)
- IC50 [1]: 18 µM

SMILES: O=C(CCCCCO)c1ccc(-c2ccc(C(F)(F)F)cc2C(F)(F)F)cc1
- IC50 [1]: 23 µM

- inhibition [9]: inactive
- inhibition [7]: inactive
SMILES: OCCCCCCc1ccc(-c2ccccc2)cc1
- inhibition [8]: inactive

SMILES: O=C(CCCCCO)c1ccc(-c2ccc(F)cc2F)cc1
- IC50 [1]: 6 µM
- IC50 [2]: > 100 µM
- Activity [10]: 10%
- IC50 [4]: 2 µM

SMILES: OCCCCCC(O)c1ccc(-c2ccccc2)cc1 (stereo not given)
- IC50 [1]: 22 µM
- IC50 [2]: > 100 µM
- IC50 [4]: 8 µM

SMILES: COc1cc(F)ccc1-c1ccc(C(O)CCCCCO)cc1 (stereo not given)
- IC50 [1]: 70 µM

SMILES: OCCCCCC(O)c1ccc(-c2ccc(C(F)(F)F)cc2)cc1 (stereo not given)
- IC50 [1]: 13 µM

SMILES: COc1ccc(-c2ccc(C(=O)CCCCCO)cc2)c(OC)c1
- IC50 [1]: 50 µM
- IC50 [4]: 13 µM

- inhibition [9]: inactive
SMILES: Cc1cccc(-c2ccc(C(=O)CCCCCO)cc2)c1
- IC50 [1]: 100 µM
- inhibition [8]: inactive

SMILES: O=C(CCCCCO)c1ccc(-c2ccccc2)cc1
- IC50 [1]: 22 µM
- IC50 [2]: > 100 µM
- Activity [10]: 21%
- IC50 [4]: 9 µM

- inhibition [7]: Active
SMILES: O=C(CCCCCO)c1ccc(-c2ccc(Cl)cc2Cl)cc1
- IC50 [1]: 8 µM
- inhibition [11]: Active
- IC50 [2]: > 100 µM
- Activity [3]: 6%
- Activity [10]: -6%
- IC50 [4]: 0.8 µM
- inhibition [5]: Active
- inhibition [6]: Active

SMILES: CCOc1ccc(-c2ccc(C(O)CCCCCO)cc2)cc1 (stereo not given)
- IC50 [1]: 14 µM

SMILES: Cc1cc(F)ccc1-c1ccc(C(=O)CCCCCO)cc1
- IC50 [1]: 20 µM

— ChEMBL document CHEMBL1221331, “Discovery of biphenylketones as dual modulators of inflammation and bone loss” (Bioorg Med Chem Lett, 2010)
